Experimental data reported in the supplement of paper PMC8671470.

How the values were obtained:
ML-2 = assay: cell viability (% survival relative to DMSO control, bortezomib = 0%); higher = less cytotoxic; conditions: 72 h
Procedure, shortened: (§1)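 Fifteen myeloid leukaemia cell lines (10 AML, 5 CML) were seeded at a density titrated to the linear growth range into 384-well plates pre-printed with compounds at 1, 10, 100, 1000 or 10000 nM in duplicate. Plates were incubated for 72 h at 37 °C with 5% CO2. Viability was then read by CellTiter-Glo luminescence. Each value is percent survival averaged over the duplicates, with vehicle set to 100% and a 10 µM positive control to 0%.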

KCL-22 = assay: as above; conditions: 72 h
Procedure, shortened: as §1

Q: With `NC(=O)c1ncn([C@@H]2O[C@H](CO)[C@@H](O)[C@H]2O)n1` [Ribavirin] as the compound, how does the cell viability (ML-2; 1 nM) read?
A: Its cell viability is 95.4%.

Q: And the cell viability (ML-2; 10 nM)?
A: Its cell viability is 103%.

Q: What about the cell viability (ML-2; 100 nM) of the same compound?
A: Its cell viability is 97.7%.

Q: And the cell viability (ML-2; 1000 nM)?
A: The cell viability was 94.3%.

Q: And the cell viability (ML-2; 10000 nM)?
A: Its cell viability is 111%.

Q: What about the cell viability (KCL-22; 1 nM) of the same compound?
A: Its cell viability is 72.9%.

Q: And the cell viability (KCL-22; 10 nM)?
A: The cell viability was 104%.

Q: And the cell viability (KCL-22; 100 nM)?
A: The cell viability was 114%.

Q: And the cell viability (KCL-22; 1000 nM)?
A: The cell viability was 107%.

Q: And the cell viability (KCL-22; 10000 nM)?
A: Its cell viability is 103%.

Q: `Nc1ncnc2c1ncn2[C@@H]1O[C@H](CSCC[C@H](N)C(=O)O)[C@@H](O)[C@H]1O` [S-Adenosyl Homocysteine] was tested. Which cell viability (ML-2; 1 nM) did it give?
A: Its cell viability is 102%.

Q: And the cell viability (ML-2; 10 nM)?
A: The cell viability was 102%.

Q: What about the cell viability (ML-2; 100 nM) of the same compound?
A: Its cell viability is 101%.

Q: And the cell viability (ML-2; 1000 nM)?
A: Its cell viability is 107%.

Q: And the cell viability (ML-2; 10000 nM)?
A: Its cell viability is 103%.

Q: What about the cell viability (KCL-22; 1 nM) of the same compound?
A: The cell viability was 97.5%.

Q: And the cell viability (KCL-22; 10 nM)?
A: The cell viability was 113%.

Q: What about the cell viability (KCL-22; 100 nM) of the same compound?
A: Its cell viability is 98.5%.

Q: What about the cell viability (KCL-22; 1000 nM) of the same compound?
A: The cell viability was 94.5%.

Q: And the cell viability (KCL-22; 10000 nM)?
A: The cell viability was 102%.

Q: For `CCCc1nn(C)c2c(O)nc(-c3cc(S(=O)(=O)N4CCN(C)CC4)ccc3OCC)nc12` [Sildenafil], which cell viability (ML-2; 1 nM) is on record?
A: Its cell viability is 92.3%.

Q: What about the cell viability (ML-2; 10 nM) of the same compound?
A: The cell viability was 103%.

Q: What about the cell viability (ML-2; 100 nM) of the same compound?
A: Its cell viability is 93.1%.

Q: And the cell viability (ML-2; 1000 nM)?
A: The cell viability was 109%.

Q: What about the cell viability (ML-2; 10000 nM) of the same compound?
A: Its cell viability is 107%.

Q: And the cell viability (KCL-22; 1 nM)?
A: Its cell viability is 89.7%.

Q: And the cell viability (KCL-22; 10 nM)?
A: The cell viability was 102%.

Q: And the cell viability (KCL-22; 100 nM)?
A: The cell viability was 97.5%.

Q: And the cell viability (KCL-22; 1000 nM)?
A: The cell viability was 88.7%.

Q: And the cell viability (KCL-22; 10000 nM)?
A: Its cell viability is 113%.

Q: Which cell viability (ML-2; 1 nM) does the source give for `Cc1coc2c1C(=O)C(=O)c1c-2ccc2c(C)cccc12` [Tanshinone I] here?
A: Its cell viability is 113%.

Q: And the cell viability (ML-2; 10 nM)?
A: The cell viability was 114%.

Q: What about the cell viability (ML-2; 100 nM) of the same compound?
A: The cell viability was 97.8%.

Q: And the cell viability (ML-2; 1000 nM)?
A: The cell viability was 103%.

Q: What about the cell viability (ML-2; 10000 nM) of the same compound?
A: The cell viability was 71.1%.

Q: What about the cell viability (KCL-22; 1 nM) of the same compound?
A: The cell viability was 125%.

Q: And the cell viability (KCL-22; 10 nM)?
A: Its cell viability is 100%.

Q: What about the cell viability (KCL-22; 100 nM) of the same compound?
A: Its cell viability is 108%.

Q: And the cell viability (KCL-22; 1000 nM)?
A: Its cell viability is 111%.

Q: And the cell viability (KCL-22; 10000 nM)?
A: Its cell viability is 59.5%.

Q: With `CN(C/C=C/C#CC(C)(C)C)Cc1cccc2ccccc12` [Terbinafine] as the compound, how does the cell viability (ML-2; 1 nM) read?
A: Its cell viability is 102%.

Q: What about the cell viability (ML-2; 10 nM) of the same compound?
A: Its cell viability is 101%.

Q: And the cell viability (ML-2; 100 nM)?
A: The cell viability was 92.2%.

Q: What about the cell viability (ML-2; 1000 nM) of the same compound?
A: Its cell viability is 108%.

Q: And the cell viability (ML-2; 10000 nM)?
A: The cell viability was 90.3%.

Q: What about the cell viability (KCL-22; 1 nM) of the same compound?
A: The cell viability was 101%.

Q: And the cell viability (KCL-22; 10 nM)?
A: The cell viability was 96.2%.

Q: What about the cell viability (KCL-22; 100 nM) of the same compound?
A: The cell viability was 101%.

Q: And the cell viability (KCL-22; 1000 nM)?
A: Its cell viability is 104%.

Q: What about the cell viability (KCL-22; 10000 nM) of the same compound?
A: Its cell viability is 93.2%.

Q: `CCOC(=O)N1c2ccc(C(F)(F)F)cc2[C@@H](N(Cc2cc(C(F)(F)F)cc(C(F)(F)F)c2)C(=O)OC)C[C@H]1CC` [Torcetrapib] was tested. Which cell viability (ML-2; 1 nM) did it give?
A: The cell viability was 89.8%.

Q: What about the cell viability (ML-2; 10 nM) of the same compound?
A: The cell viability was 97%.

Q: And the cell viability (ML-2; 100 nM)?
A: Its cell viability is 118%.

Q: And the cell viability (ML-2; 1000 nM)?
A: The cell viability was 80.9%.

Q: And the cell viability (ML-2; 10000 nM)?
A: The cell viability was 57.8%.

Q: What about the cell viability (KCL-22; 1 nM) of the same compound?
A: The cell viability was 105%.

Q: And the cell viability (KCL-22; 10 nM)?
A: The cell viability was 107%.

Q: And the cell viability (KCL-22; 100 nM)?
A: The cell viability was 126%.

Q: And the cell viability (KCL-22; 1000 nM)?
A: The cell viability was 98.3%.

Q: What about the cell viability (KCL-22; 10000 nM) of the same compound?
A: The cell viability was 86.8%.

Q: Which cell viability (ML-2; 1 nM) does the source give for `Oc1cc(Cl)ccc1Oc1ccc(Cl)cc1Cl` [Triclosan] here?
A: The cell viability was 101%.

Q: What about the cell viability (ML-2; 10 nM) of the same compound?
A: Its cell viability is 104%.

Q: What about the cell viability (ML-2; 100 nM) of the same compound?
A: The cell viability was 102%.

Q: What about the cell viability (ML-2; 1000 nM) of the same compound?
A: The cell viability was 114%.

Q: What about the cell viability (ML-2; 10000 nM) of the same compound?
A: The cell viability was 93.5%.

Q: And the cell viability (KCL-22; 1 nM)?
A: Its cell viability is 115%.

Q: What about the cell viability (KCL-22; 10 nM) of the same compound?
A: Its cell viability is 98.3%.

Q: And the cell viability (KCL-22; 100 nM)?
A: Its cell viability is 89.7%.

Q: What about the cell viability (KCL-22; 1000 nM) of the same compound?
A: The cell viability was 105%.

Q: And the cell viability (KCL-22; 10000 nM)?
A: Its cell viability is 65.5%.

Q: How did the cell viability (ML-2; 1 nM) turn out when `COc1cc2c(NC3CCN(C)CC3)nc(N3CCCN(C)CC3)nc2cc1OCCCN(C)C` [UNC0224] was run?
A: Its cell viability is 94%.

Q: And the cell viability (ML-2; 10 nM)?
A: The cell viability was 111%.

Q: And the cell viability (ML-2; 100 nM)?
A: Its cell viability is 95%.

Q: And the cell viability (ML-2; 1000 nM)?
A: The cell viability was 99.6%.

Q: And the cell viability (ML-2; 10000 nM)?
A: The cell viability was 97.2%.

Q: And the cell viability (KCL-22; 1 nM)?
A: Its cell viability is 98.2%.

Q: And the cell viability (KCL-22; 10 nM)?
A: Its cell viability is 134%.

Q: What about the cell viability (KCL-22; 100 nM) of the same compound?
A: The cell viability was 97.6%.

Q: What about the cell viability (KCL-22; 1000 nM) of the same compound?
A: The cell viability was 94.9%.

Q: What about the cell viability (KCL-22; 10000 nM) of the same compound?
A: Its cell viability is 90.7%.

Q: Which results are given for `CC(C)C[C@H](NC(=O)[C@@H](O)[C@H](N)Cc1ccccc1)C(=O)O` [Ubenimex]?
A: cell viability (ML-2; 1 nM): 108%; cell viability (ML-2; 10 nM): 109%; cell viability (ML-2; 100 nM): 101%; cell viability (ML-2; 1000 nM): 87.3%; cell viability (ML-2; 10000 nM): 99.8%; cell viability (KCL-22; 1 nM): 118%; cell viability (KCL-22; 10 nM): 120%; cell viability (KCL-22; 1000 nM): 89.2%; cell viability (KCL-22; 10000 nM): 95.2%

Q: What does the source list for `O=P(O)(O)C(O)(Cn1ccnc1)P(=O)(O)O` [Zoledronic acid]?
A: cell viability (ML-2; 1 nM): 80.5%; cell viability (ML-2; 10 nM): 94.9%; cell viability (ML-2; 100 nM): 92.6%; cell viability (ML-2; 1000 nM): 105%; cell viability (ML-2; 10000 nM): 102%; cell viability (KCL-22; 1 nM): 107%; cell viability (KCL-22; 10 nM): 103%; cell viability (KCL-22; 100 nM): 102%; cell viability (KCL-22; 1000 nM): 104%; cell viability (KCL-22; 10000 nM): 97.4%
